Strand notation (5' to 3'): a small letter for the sugar, then the base; units joined by * are phosphorothioate-linked, units joined directly phosphodiester-linked; [ ] holds rarer units or linkages, { } end groups; capitals alone tell only the bases. e = 2'-O-(2-methoxyethyl) (MOE); [5mC] = 5-methylcytosine; d = 2'-deoxy (DNA)
Tested on: human Factor 7 mRNA
Assay: Antisense inhibition of human Factor 7 mRNA in HepB3 cells, 50 nM antisense oligonucleotide, lipofectin
Format: cell-based
Conditions: for % Inhibition: lipofectin, approximately 24 hours
Experimental: Antisense oligonucleotides targeted to a Factor 7 nucleic acid were tested for their effects on Factor 7 mRNA in vitro. Cultured HepB3 cells at a density of 4,000 cells per well were transfected using lipofectin reagent with 50 nM antisense oligonucleotide. After a treatment period of approximately 24 hours, RNA was isolated from the cells and Factor 7 mRNA levels were measured by real-time RT-PCR, as described herein. Factor 7 mRNA levels were adjusted according to total RNA content as measured by RIBOGREEN®. Results are presented as percent inhibition of Factor 7, relative to untreated control cells.
(§1) Antisense oligonucleotides targeted to a Factor 7 nucleic acid were designed and tested for their effects on Factor 7 mRNA in vitro. Certain antisense oligonucleotides from Table 3 were also retested for their effects on Factor 7 mRNA in vitro. Cultured HepB3 cells at a density of 4,000 cells per well were transfected using lipofectin reagent with 50 nM antisense oligonucleotide. After a treatment period of approximately 24 hours, RNA was isolated from the cells and Factor 7 mRNA levels were measured by real-time RT-PCR, as described herein. Human Factor 7 primer probe set RTS 2927 was used to measure mRNA levels. Factor 7 mRNA levels were adjusted according to total RNA content as measured by RIBOGREEN®. Results are presented as percent inhibition of Factor 7, relative to untreated control.
as §1, with “tested” for “tested for their effects on Factor 7 mRNA in vitro. Certain antisense oligonucleotides from Table 3 were also retested”
These gapmers were designed by creating gapmers shifted slightly upstream and downstream (i.e. “microwalk”) of the original gapmers from Table 7. Gapmers were also created with various motifs, e.g. 5-10-5 MOE, 3-14-3 MOE, and 2-13-5 MOE. These gapmers were tested in vitro. Cultured HepB3 cells at a density of 4,000 cells per well were transfected using lipofectin reagent with 50 nM antisense oligonucleotide. After a treatment period of approximately 24 hours, RNA was isolated from the cells and Factor 7 mRNA levels were measured by real-time RT-PCR. Factor 7 mRNA levels were adjusted according to total RNA content, as measured by RIBOGREEN®. Results are presented as percent inhibition of Factor 7, relative to untreated control cells.

[1] = Table 1, 50 nM, relative to untreated control cells
[2] = 50 nM antisense oligonucleotide, Factor 7 mRNA by real-time RT-PCR (RTS 2927), relative to untreated control
[3] = oligonucleotides targeted to nucleobases 11830 to 11869 of SEQ ID NO: 1 (Table 9)
[4] = oligonucleotides targeted to nucleobases 14707 to 14732 of SEQ ID NO: 1 (Table 11)
[5] = oligonucleotides targeted to nucleobases 13760 to 13789 of SEQ ID NO: 1 (Table 10)

Substance: 407912 (antisense e[5mC]*e[5mC]*e[5mC]*eG*eG*dT*dA*dG*dT*dG*dG*dG*dT*dG*dG*e[5mC]*eA*eT*eG*eT) [compound 407912]
- % Inhibition [1]: 46%

Substance: 416504 (antisense eT*e[5mC]*eA*eG*eA*dA*dA*dA*dG*d[5mC]*dT*d[5mC]*dT*d[5mC]*dA*eA*eG*eA*eA*e[5mC]) [compound 416504]
- % Inhibition [2]: 0%

Substance: 422174 (antisense eG*e[5mC]*eT*dG*dG*d[5mC]*dT*dG*dA*dG*dG*dA*dG*dA*d[5mC]*dA*dA*eT*eG*eG) [compound 422174]
- % Inhibition (human Factor 7 mRNA levels) [3]: 55%

Substance: 416527 (antisense eG*eA*eG*e[5mC]*eT*dT*d[5mC]*d[5mC]*d[5mC]*dA*dA*dG*dT*dT*dG*eG*e[5mC]*eA*eG*eT) [compound 416527]
- % Inhibition [2]: 49%

Substance: 422187 (antisense e[5mC]*eG*eG*dA*dA*dG*dA*dA*dG*dG*dG*dA*d[5mC]*dG*dG*dA*dA*eG*eG*eT) [compound 422187]
- % Inhibition (Table 6, 50 nM): 28%

Substance: 407931 (antisense e[5mC]*eT*eT*e[5mC]*eA*dG*dA*dG*dG*dA*d[5mC]*dA*dG*d[5mC]*dA*e[5mC]*eA*e[5mC]*eA*eT) [compound 407931]
- % Inhibition [1]: 56%

Substance: 422278 (antisense eG*e[5mC]*d[5mC]*dT*dG*dA*dG*dG*d[5mC]*d[5mC]*dA*dG*d[5mC]*dA*dG*eA*eT*e[5mC]*eA*e[5mC]) [compound 422278]
- % Inhibition (human Factor 7 mRNA levels) [4]: 64%

Substance: 407893 (antisense eT*e[5mC]*eG*eA*eA*dG*dG*d[5mC]*dA*dG*dG*dG*dA*dG*dG*e[5mC]*eA*eG*eA*eA) [compound 407893]
- % Inhibition [1]: 33%

Substance: 416447 (antisense e[5mC]*eA*eT*eG*eG*dA*dT*dA*dT*dT*d[5mC]*dA*dA*d[5mC]*dT*eG*eT*eG*eG*eG) [compound 416447]
- % Inhibition [2]: 17%

Substance: 422129 (antisense eG*eT*eT*eA*e[5mC]*dT*dG*dA*dG*d[5mC]*dG*d[5mC]*dG*dG*dA*eA*eG*eA*eA*eG) [compound 422129]
- % Inhibition (Table 6, 50 nM): 45%

Substance: 407627 (antisense eG*e[5mC]*e[5mC]*e[5mC]*eA*dG*d[5mC]*dA*d[5mC]*d[5mC]*dG*d[5mC]*dG*dA*dT*e[5mC]*eA*eG*eG*eT) [compound 407627]
- % Inhibition [1]: 79%

Substance: 422227 (antisense eG*e[5mC]*dA*dT*dG*dG*dT*dG*dA*dT*dG*d[5mC]*dT*dT*d[5mC]*eT*eG*eA*eA*eT) [compound 422227]
- % Inhibition (Table 13 (microwalk), 50 nM): 67%

Substance: 422163 (antisense eA*eG*eA*d[5mC]*dA*dA*dT*dG*dG*dT*d[5mC]*dA*dG*dG*dG*d[5mC]*dT*eG*eG*eT) [compound 422163]
- % Inhibition (human Factor 7 mRNA levels) [3]: 56%

Substance: 416543 (antisense eT*e[5mC]*e[5mC]*eT*eG*d[5mC]*dG*dA*dG*dT*dG*dG*dG*dA*dG*eT*eT*eG*eG*eA) [compound 416543]
- % Inhibition [2]: 0%

Substance: 416553 (antisense eG*eG*eT*eT*e[5mC]*dT*d[5mC]*dT*dG*d[5mC]*dA*d[5mC]*dA*dG*dG*eG*eT*eA*eG*eA) [compound 416553]
- % Inhibition [2]: 56%

Substance: 422115 (antisense eG*e[5mC]*eG*e[5mC]*e[5mC]*dA*d[5mC]*d[5mC]*d[5mC]*dG*d[5mC]*d[5mC]*dG*dG*d[5mC]*eT*e[5mC]*eT*eG*e[5mC]) [compound 422115]
- % Inhibition (human Factor 7 mRNA levels) [5]: 66%

Substance: 416466 (antisense eT*eG*eT*eG*eG*dG*d[5mC]*d[5mC]*dT*d[5mC]*d[5mC]*dA*d[5mC]*dT*dG*eT*e[5mC]*e[5mC]*e[5mC]*e[5mC]) [compound 416466]
- % Inhibition [2]: 57%

Substance: 416512 (antisense eG*eA*e[5mC]*eG*eA*d[5mC]*d[5mC]*dT*dT*dT*dG*d[5mC]*dT*dG*dG*eG*eA*eG*eG*eA) [compound 416512]
- % Inhibition [2]: 43%

Substance: 416557 (antisense eT*e[5mC]*e[5mC]*e[5mC]*eA*dG*dG*d[5mC]*dA*dA*dA*dG*d[5mC]*dT*dG*e[5mC]*eT*e[5mC]*eA*eG) [compound 416557]
- % Inhibition [2]: 56%

Substance: 416460 (antisense e[5mC]*eA*e[5mC]*e[5mC]*eA*d[5mC]*dA*dT*dG*dG*dT*d[5mC]*dA*dG*dT*eG*eA*eG*eG*eA) [compound 416460]
- % Inhibition [2]: 49%

Substance: 416514 (antisense eG*eT*eA*eT*eT*dT*dT*d[5mC]*dT*dG*dA*dT*dG*dT*dG*eA*eA*eA*eA*e[5mC]) [compound 416514]
- % Inhibition [2]: 8%

Substance: 407888 (antisense e[5mC]*eG*eA*eA*eG*dA*d[5mC]*dT*dG*d[5mC]*dA*dG*d[5mC]*d[5mC]*dA*eG*eG*e[5mC]*eA*eG) [compound 407888]
- % Inhibition [1]: 34%

Substance: 422095 (antisense eA*e[5mC]*eA*eA*eT*dG*dG*dT*d[5mC]*dA*dG*dG*dG*d[5mC]*dT*eG*eG*eT*eT*eT) [compound 422095]
- % Inhibition (human Factor 7 mRNA levels) [3]: 60%

Substance: 416448 (antisense eT*eT*eT*eT*eT*d[5mC]*d[5mC]*dA*d[5mC]*dA*dT*dG*dG*dA*dT*eA*eT*eT*e[5mC]*eA) [compound 416448]
- % Inhibition [2]: 34%

Substance: 422282 (antisense eA*eG*d[5mC]*dA*dG*d[5mC]*d[5mC]*dT*dG*dA*dG*dG*d[5mC]*d[5mC]*dA*eG*e[5mC]*eA*eG*eA) [compound 422282]
- % Inhibition (human Factor 7 mRNA levels) [4]: 48%

Substance: 416523 (antisense eT*e[5mC]*eT*e[5mC]*eG*dA*dG*dG*dG*d[5mC]*dT*dG*dA*dG*dA*eA*eT*eT*eG*e[5mC]) [compound 416523]
- % Inhibition [2]: 18%

Substance: 422166 (antisense eA*eG*eG*dA*dG*dA*d[5mC]*dA*dA*dT*dG*dG*dT*d[5mC]*dA*dG*dG*eG*e[5mC]*eT) [compound 422166]
- % Inhibition (human Factor 7 mRNA levels) [3]: 63%

Substance: 407663 (antisense eT*eT*eG*e[5mC]*eA*dG*dG*d[5mC]*dA*dG*dG*dA*d[5mC]*dT*dG*eG*eT*eG*eG*eT) [compound 407663]
- % Inhibition [1]: 44%

Substance: 422301 (antisense eG*eG*dA*dG*d[5mC]*d[5mC]*d[5mC]*dG*dA*dG*dT*dT*d[5mC]*dT*dG*e[5mC]*eA*eG*eG*eA) [compound 422301]
- % Inhibition of human Factor 7 mRNA levels (gapmers targeted to nucleobases 4868 to 4899 of SEQ ID NO: 1, Table 8): 67%

Substance: 422198 (antisense eG*eT*eT*dA*d[5mC]*dT*dG*dA*dG*d[5mC]*dG*d[5mC]*dG*dG*dA*dA*dG*eA*eA*eG) [compound 422198]
- % Inhibition (Table 6, 50 nM): 50%

Substance: 422184 (antisense eT*eG*e[5mC]*dG*d[5mC]*d[5mC]*dA*d[5mC]*d[5mC]*d[5mC]*dG*d[5mC]*d[5mC]*dG*dG*d[5mC]*dT*e[5mC]*eT*eG) [compound 422184]
- % Inhibition (human Factor 7 mRNA levels) [5]: 55%

Substance: 416568 (antisense e[5mC]*eA*eT*eT*eG*dT*dG*d[5mC]*d[5mC]*dT*dG*dG*d[5mC]*dA*d[5mC]*eA*e[5mC]*eA*eG*eG) [compound 416568]
- % Inhibition [2]: 14%

Substance: 422176 (antisense e[5mC]*e[5mC]*eG*d[5mC]*d[5mC]*dG*dG*d[5mC]*dT*d[5mC]*dT*dG*d[5mC]*dT*d[5mC]*dA*dT*e[5mC]*e[5mC]*e[5mC]) [compound 422176]
- % Inhibition (human Factor 7 mRNA levels) [5]: 52%

Substance: 422197 (antisense eT*eT*eA*d[5mC]*dT*dG*dA*dG*d[5mC]*dG*d[5mC]*dG*dG*dA*dA*dG*dA*eA*eG*eG) [compound 422197]
- % Inhibition (Table 6, 50 nM): 26%

Substance: 407631 (antisense eG*eG*eG*e[5mC]*eA*d[5mC]*d[5mC]*dA*d[5mC]*dA*dT*dG*dG*dT*d[5mC]*eA*eG*eT*eG*eA) [compound 407631]
- % Inhibition [1]: 66%

Substance: 422288 (antisense eA*e[5mC]*dA*dG*d[5mC]*dA*d[5mC]*dA*d[5mC]*dA*dT*dG*dG*dA*dG*eT*e[5mC]*eA*eG*e[5mC]) [compound 422288]
- % Inhibition (human Factor 7 mRNA levels) (oligonucleotides targeted to nucleobases 15098 to 15122 of SEQ ID NO: 1 (Table 12)): 44%

Substance: 422283 (antisense e[5mC]*eA*dG*d[5mC]*dA*dG*d[5mC]*d[5mC]*dT*dG*dA*dG*dG*d[5mC]*d[5mC]*eA*eG*e[5mC]*eA*eG) [compound 422283]
- % Inhibition (human Factor 7 mRNA levels) [4]: 50%

Substance: 407661 (antisense eT*eT*eT*eA*e[5mC]*dA*dA*dG*dA*dG*d[5mC]*dA*dG*dG*dG*eT*eG*e[5mC]*e[5mC]*eT) [compound 407661]
- % Inhibition [1]: 47%
